# Experimental data taken from ChEMBL document CHEMBL5131483, “Design, chemical synthesis and antiviral evaluation of 2'-deoxy-2'-fluoro-2'-C-methyl-4'-thionucleosides” (Bioorg Med Chem Lett, 2022).
# Test system: Hepatitis C virus
# Assay: Antiviral activity against HCV by replicon assay
# Type: functional, organism-based, Hepacivirus hominis
# Details: not given
row,Structure (SMILES),EC50 [µM]
1,Nc1ccn([C@@H]2O[C@H](CO)[C@@H](O)[C@H]2O)c(=O)n1 [CYTIDINE],50
2,C[C@@]1(F)[C@H](O)[C@@H](CO)S[C@H]1n1ccc(=O)[nH]c1=O,> 100
3,CC(C)OC(=O)[C@H](C)N[P@](=O)(OC[C@H]1O[C@@H](n2ccc(=O)[nH]c2=O)[C@](C)(F)[C@@H]1O)Oc1ccccc1 [SOFOSBUVIR],0.03
4,Nc1ccn([C@@H]2S[C@H](CO)[C@@H](O)C2(F)F)c(=O)n1,22.5
5,C[C@@]1(F)[C@H](O)[C@@H](CO)S[C@@H]1n1ccc(N)nc1=O,> 100
6,O=c1ccn([C@@H]2O[C@H](CO)[C@@H](O)[C@@H]2O)c(=O)[nH]1 [ARAURIDINE],> 100
7,Nc1ccn([C@H]2[C@H](O)[C@H](O)[C@@H](CO)[S+]2[O-])c(=O)n1 (stereo not given in full),> 100
8,Nc1ccn([C@@H]2O[C@H](CO)[C@@H](O)[C@@H]2O)c(=O)n1 [CYTARABINE],0.16
9,O=c1ccn([C@@H]2O[C@H](CO)[C@@H](O)[C@H]2O)c(=O)[nH]1 [URIDINE],65.9
10,CC(C)OC(=O)[C@@H](C)N[P@](=O)(OC[C@H]1S[C@@H](n2ccc(=O)[nH]c2=O)[C@](C)(F)[C@@H]1O)Oc1ccccc1,2.99
11,Nc1ccn([C@H]2[C@@H](O)[C@H](O)[C@@H](CO)[S+]2[O-])c(=O)n1 (mixture of isomers),> 100
12,Nc1ccn([C@@H]2[S+]([O-])[C@H](CO)[C@@H](O)C2(F)F)c(=O)n1 (mixture of isomers),21.8
13,C[C@@]1(F)[C@H](O)[C@@H](CO)S[C@H]1n1ccc(N)nc1=O,> 100
14,C[C@@]1(F)[C@H](O)[C@@H](CO)S[C@@H]1n1ccc(=O)[nH]c1=O,> 100

# Test system: not listed separately
# Assay: Cytotoxicity against human U-87 MG cells measured after 3 days by Celltiter-glo assay
# Type: functional, U-87MG ATCC
# Details: 72 h, time 3 day
row,Structure (SMILES),CC50 [µM]
1,Nc1ccn([C@@H]2O[C@H](CO)[C@@H](O)[C@@H]2O)c(=O)n1 [CYTARABINE],0.19
